Data reported in patent US20160081936A1 (MURRAY AND POOLE ENTERPRISES LIMITED, priority 2013, published 2016).

Experiments:
[1] = tested on: patients with a first episode of acute pericarditis; conditions: conventional treatment with aspirin, or the same plus colchicine 0.5 to 1.0 mg/day for 3 months; p=0.004; cited from earlier work
[2] = tested on: patients with a first episode of recurrent pericarditis; conditions: conventional treatment with aspirin alone, or the same plus colchicine 0.5-1.0 mg/d for 6 months; cited from earlier work
[3] = tested on: patients with stable coronary disease; assay: LoDoCo trial: colchicine 0.5 mg/day added to standard secondary prevention therapy; format: in vivo, human
Protocol: This study is described in PCT/AU2013/001261 and is hereby incorporated in its entirety by reference.
All outcomes were evaluated by an experienced adjudicator blinded to the treatment allocation.
Patients with a history of bypass surgery were only eligible if they had undergone bypass surgery more than 10 years before, or had angiographic evidence of graft failure or had undergone stenting since their bypass surgery. All patients signed informed consent before randomization.
The randomization sequence was computer generated, kept concealed from the investigators at all times and was managed by a research assistant who had no involvement in the evaluation or management of study patients. […] Patients who were intolerant to therapy remained in the study, and were followed in the usual manner and included in the primary intention to treat analysis.
The drug was dispensed by their usual chemist, and if requested, patients were reimbursed for the cost of these scripts. All other treatments were continued as usual.
Patient compliance with treatment and outcome data were collected at routine follow up visits and at the time of any unplanned hospital admission. An acute coronary syndrome (ACS) was defined as either (a) Acute Myocardial Infarction (AMI), as evidenced by acute ischemic chest pain associated with a rise in serum troponin above the upper limit of normal or (b) Unstable Angina (UA), as evidenced by a recent acceleration of the patient's angina unassociated with a rise in serum troponin but associated with angiographic evidence of a change in the patient's coronary anatomy. (Unstable Angina Braunwald classification types IB and IIB). The ACS was characterized as being stent-related if there was evidence of significant in-stent stenosis or acute stent thrombosis. Out of Hospital Cardiac Arrest was defined as either a sudden death as evidenced on the patient's death certificate, or a non-fatal out of hospital cardiac arrest, defined as a recovery from sudden collapse associated with documented asystole, ventricular tachycardia or ventricular fibrillation. Noncardioembolic ischemic stroke was defined as CT or MRI proven ischemic stroke adjudged by the treating neurologist as not being due to atrial fibrillation or intracranial hemorrhage.
The primary efficacy outcome was the composite, ACS, fatal or non-fatal out of hospital cardiac arrest or non-cardio-embolic ischemic stroke. Secondary outcomes were (a) individual components of the primary outcome, and (b) the components of ACS unrelated to stent disease.
The pre-specified study duration was a minimum follow up of two years in all patients. Accordingly the study was closed on May 31, 2012. During May, all living patients were contacted by phone to collect compliance and outcome data from the last date of follow-up.
Summary statistics, including mean and standard deviation were calculated for all baseline characteristics by treatment arm. All time to event outcomes were calculated in days by subtracting the date of randomization from either: (1) the date of event or death; or (2) the trial termination date for those patients not experiencing the defined event. As pre-specified, the primary efficacy analysis was based on the intention-to-treat principle. The intention-to-treat analysis included all randomized subjects and all events during the time from randomization to the trial termination. Trial termination date was fixed as May 31, 2012. A secondary pre-specified on-treatment analysis was also performed, based on patients who were both tolerant and compliant to therapy beyond the first month of randomization.
The time-to-first-event for all outcomes is presented using a Kaplan-Meier plot. […] The secondary outcomes were analysed similarly.

[4] = tested on: patients with stable coronary disease; conditions: 0.5 mg/day in addition to statins and other standard secondary prevention therapies; Nidorf et al., JACC 2013; cited from earlier work

Compound | recurrence rate at 18 months [1] [%] | recurrence rate, actuarial rates at 18 months [2] [%] | deaths ([3]; colchicine group (282), all of non-cardiac causes, 10 in control group) [patients] | primary outcome, number needed to treat ([3]; intention to treat) | ACS unrelated to stent disease associated with UA, patients ([3]; intention to treat, 0.5 mg/day) [%] | ACS unrelated to stent disease associated with an AMI, patients ([3]; intention to treat, 0.5 mg/day) [%] | patients presenting with an ACS ([3]; intention to treat, 0.5 mg/day) [%] | patients presenting with an ACS unrelated to stent disease ([3]; intention to treat, 0.5 mg/day) [%] | primary outcome (composite of ACS, fatal or non-fatal out of hospital cardiac arrest or non-cardio-embolic ischemic stroke), patients with event ([3]; intention to treat, 0.5 mg/day, median follow up 36 months) [%] | events in patients compliant and tolerant to therapy beyond the first month ([3]; on-treatment analysis, 0.5 mg/day) [%] | out of hospital cardiac arrest and non-cardio-embolic ischemic stroke ([3]; treatment group vs control) | prevention of cardiovascular events in patients with stable coronary disease [4]
CC(=O)Oc1ccccc1C(=O)O [aspirin] | 32.3 | 50.6 |  |  |  |  |  |  |  |  |  | 
COc1cc2c(c(OC)c1OC)-c1ccc(OC)c(=O)cc1[C@@H](NC(C)=O)CC2 [colchicine, N[5,6,7,9-tetrahydro-1,2,3,10-tetratmethoxy 9-oxobenzo[a]heptalen-7-yl],(S)-acetamide] | 10.7 | 24.0 | 4 | 11 | 1.8 | 1.4 | 4.6 | 3.2 | 5.3 | 4.5 | reduced | appeared effective
